Source: US10952999B2, “Inhibitor of cyclin-dependent kinase CDK9” (GENFLEET THERAPEUTICS (SHANGHAI) INC., priority 2017, dated 2021)

Tests used:
[1] = tested on: human non-small cell lung cancer cell PC-9; assay: Cancer cell growth, Cell Titer-Glo cell viability assay, 72 hours; type: cell-based; conditions: PC-9, 72 hours
Source text: (§1) In the examples, we used acute myelocytic leukemia (AML) OCI-AML-3, acute promyelocytic leukemia cell line NB-4, MDS-RAEB (myelodysplastic syndrome-excess blasts type) cell line SKM-1, human leukemia cell Nomo-1, acute myeloid leukemia cell line MOLM14, acute myeloid leukemia cell line MOLM13, acute myeloid leukemia cell line MV4-11, acute myeloid leukemia cell line HL-60, acute myeloid leukemia cell line OCI-AML-2, histiocytic lymphoma U-937, acute B cell leukemia cell line MEC-1, acute B cell leukemia cell line MEC-2, acute megakaryoblastic leukemia CMK, hamster lung cell CHL, hamster ovary cell CHO, human non-small cell lung cancer cell H1975, human non-small cell lung cancer cell H358, human small cell lung cancer cell H209, human lung adenocarcinoma cell H1395, human non-small cell lung cancer cell PC-9, human lung cancer cell H3122, human non-small cell lung cancer cell H2122, human non-small cell lung cancer cell H1915, human lung adenocarcinoma cell H1355, human non-small cell lung cancer cell HCC827, human breast cancer cell MDA-MB-231, human breast cancer cell MDA-MB-468, human breast cancer cell MCF-7, human breast cancer cell T47D, human breast cancer cell SK-Br-3, the above cells were purchased from ATCC.
(§2) Cell Titer-Glo® (Promega, USA) chemical self-luminescence cell viability assay kit was used to detect the number of viable cells by quantitatively measuring ATP in living cells, according to which to calculate GI50 and IC50.

[2] = tested on: human breast cancer cell MDA-MB-468; assay: as above; type: cell-based; conditions: MDA-MB-468, 72 hours
Source text: as §1, §2

[3] = tested on: human lung cancer cell H3122; assay: as above; type: cell-based; conditions: NCI-H3122, H3122, 72 hours
Source text: as §1, §2

[4] = tested on: human breast cancer cell MDA-MB-231; assay: as above; type: cell-based; conditions: MDA-MB-231, 72 hours
Source text: as §1, §2

[5] = tested on: human non-small cell lung cancer cell H2122; assay: as above; type: cell-based; conditions: NCI-H2122, H2122, 72 hours
Source text: as §1, §2

[6] = tested on: human breast cancer cell SK-Br-3; assay: as above; type: cell-based; conditions: SK-Br-3, 72 hours
Source text: as §1, §2

[7] = tested on: human non-small cell lung cancer cell H358; assay: as above; type: cell-based; conditions: NCI-H358, H358, 72 hours
Source text: as §1, §2

[8] = tested on: human lung adenocarcinoma cell H1395; assay: as above; type: cell-based; conditions: NCI-H1395, H1395, 72 hours
Source text: as §1, §2

[9] = tested on: human lung adenocarcinoma cell H1355; assay: as above; type: cell-based; conditions: NCI-H1355, H1355, 72 hours
Source text: as §1, §2

[10] = tested on: human breast cancer cell T47D; assay: as above; type: cell-based
Source text: as §1, §2

[11] = tested on: human breast cancer cell MCF-7; assay: as above; type: cell-based; conditions: MCF7, MCF-7, 72 hours
Source text: as §1, §2

[12] = tested on: human non-small cell lung cancer cell H1975; assay: as above; type: cell-based; conditions: NCI-H1975, H1975, 72 hours
Source text: as §1, §2

[13] = tested on: human small cell lung cancer cell H209; assay: as above; type: cell-based; conditions: NCI-H209, H209, 72 hours
Source text: as §1, §2

[14] = tested on: human non-small cell lung cancer cell H1915; assay: as above; type: cell-based; conditions: NCI-H1915, H1915, 72 hours
Source text: as §1, §2

[15] = tested on: human non-small cell lung cancer cell HCC827; assay: as above; type: cell-based; conditions: HCC827, 72 hours
Source text: as §1, §2

CDK11(non-active) = molecular target: T1, CDK11(non-active) (Homo sapiens, UniProt Q9BWU1); assay: Enzyme assay for inhibition of CDK protein in vitro (Z-LYTE); type: biochemical
T1 construct: purchased Invitrogen, USA
Protocol: (§3) Compounds 1 and 14 diluted in DMSO were mixed with detected CDK protein (Invitrogen, USA) respectively, incubated at room temperature for 30 minutes; and then mixed with Kinase/Z-LYTE™ Peptide Substrate Mixture (Invitrogen, USA) and 4×ATP. The mixed system was transferred to a 384-well white opaque plate to react for 1 hour at room temperature; 5 μL of Development Solution (Invitrogen, USA) was added to react at room temperature for 1 hour, and finally Stop Reagent (Invitrogen, USA) was added to terminate the reaction and MD SpectraMax I3× microplate reader (Molecular Devices, USA) was used to read fluorescence values.

CDK9/cyclin T1 = molecular target: T2, CDK9/cyclin T1 (Homo sapiens, UniProt P50750); assay: as above; type: biochemical
T2 construct: purchased Invitrogen, USA
Protocol: as §3

CDK3/cyclin E1 = molecular target: T3, CDK3/cyclin E1 (Homo sapiens, UniProt Q00526); assay: as above; type: biochemical
T3 construct: purchased Invitrogen, USA
Protocol: as §3

CDK8/cyclin C = molecular target: T4, CDK8/cyclin C (Homo sapiens, UniProt P49336); assay: as above; type: biochemical
T4 construct: purchased Invitrogen, USA
Protocol: as §3

[16] = tested on: acute myeloid leukemia cell line MOLM13; assay: Cancer cell growth, Cell Titer-Glo cell viability assay, 72 hours; type: cell-based; conditions: MOLM-13, 72 hours
Source text: as §1, §2

hamster ovary cell CHO = assay: as above; type: cell-based; conditions: for inhibitory effect on normal cell CHO (in words): CHO cells; for GI50: CHO, 72 hours
Source text: as §1, §2

[17] = tested on: acute B cell leukemia cell line MEC-1; assay: as above; type: cell-based; conditions: MEC-1, 72 hours
Source text: as §1, §2

hamster lung cell CHL = assay: as above; type: cell-based; conditions: for inhibitory effect on normal cell CHL (in words): CHL cells; for GI50: CHL, 72 hours
Source text: as §1, §2

[18] = tested on: acute promyelocytic leukemia cell line NB-4; assay: as above; type: cell-based; conditions: NB4, 72 hours
Source text: as §1, §2

[19] = tested on: human leukemia cell Nomo-1; assay: as above; type: cell-based; conditions: Nomo-1, 72 hours
Source text: as §1, §2

[20] = tested on: acute B cell leukemia cell line MEC-2; assay: as above; type: cell-based; conditions: MEC-2, 72 hours
Source text: as §1, §2

[21] = tested on: acute myeloid leukemia cell line HL-60; assay: as above; type: cell-based; conditions: HL-60, 72 hours
Source text: as §1, §2

[22] = tested on: acute myeloid leukemia cell line MV4-11; assay: as above; type: cell-based; conditions: MV4-11, 72 hours
Source text: as §1, §2

[23] = tested on: acute myeloid leukemia cell line MOLM14; assay: as above; type: cell-based; conditions: MOLM-14, 72 hours
Source text: as §1, §2

[24] = tested on: MDS-RAEB (myelodysplastic syndrome-excess blasts type) cell line SKM-1; assay: as above; type: cell-based; conditions: SKM-1, 72 hours
Source text: as §1, §2

[25] = tested on: acute myeloid leukemia cell line OCI-AML-2; assay: as above; type: cell-based; conditions: OCI-AML2, 72 hours
Source text: as §1, §2

[26] = tested on: histiocytic lymphoma U-937; assay: as above; type: cell-based; conditions: U-937, 72 hours
Source text: as §1, §2

[27] = tested on: acute megakaryoblastic leukemia CMK; assay: as above; type: cell-based
Source text: as §1, §2

[28] = tested on: acute myelocytic leukemia (AML) OCI-AML-3; assay: as above; type: cell-based; conditions: OCI-AML3, 72 hours
Source text: as §1, §2

T1 sequence (Q9BWU1 whole entry): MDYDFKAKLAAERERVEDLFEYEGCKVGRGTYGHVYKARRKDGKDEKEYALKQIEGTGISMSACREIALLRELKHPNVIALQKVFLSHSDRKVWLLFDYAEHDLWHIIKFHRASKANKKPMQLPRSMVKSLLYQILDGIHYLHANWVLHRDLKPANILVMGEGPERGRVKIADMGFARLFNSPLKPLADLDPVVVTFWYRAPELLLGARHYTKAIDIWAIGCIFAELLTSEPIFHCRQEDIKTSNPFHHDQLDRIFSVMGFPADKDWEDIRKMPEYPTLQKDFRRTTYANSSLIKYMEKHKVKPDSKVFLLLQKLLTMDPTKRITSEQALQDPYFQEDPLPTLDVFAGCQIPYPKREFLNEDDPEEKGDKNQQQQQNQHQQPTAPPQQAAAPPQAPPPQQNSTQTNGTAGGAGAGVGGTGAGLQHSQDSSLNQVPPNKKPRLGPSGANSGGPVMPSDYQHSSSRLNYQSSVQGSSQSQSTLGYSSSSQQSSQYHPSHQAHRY
T4 sequence (P49336 whole entry): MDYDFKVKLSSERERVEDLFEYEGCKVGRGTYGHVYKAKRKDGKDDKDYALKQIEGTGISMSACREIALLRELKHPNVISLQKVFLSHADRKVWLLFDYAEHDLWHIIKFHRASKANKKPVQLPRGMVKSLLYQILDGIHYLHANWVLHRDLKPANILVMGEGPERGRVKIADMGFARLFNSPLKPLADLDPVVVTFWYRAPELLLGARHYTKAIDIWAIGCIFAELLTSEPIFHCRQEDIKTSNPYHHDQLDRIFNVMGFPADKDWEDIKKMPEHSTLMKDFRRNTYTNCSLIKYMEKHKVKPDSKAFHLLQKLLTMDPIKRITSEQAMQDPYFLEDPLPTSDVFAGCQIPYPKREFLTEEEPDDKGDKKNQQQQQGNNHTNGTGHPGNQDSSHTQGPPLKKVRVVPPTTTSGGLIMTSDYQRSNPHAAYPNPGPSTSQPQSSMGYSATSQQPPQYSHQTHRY
T4 sequence (P24863 whole entry partner): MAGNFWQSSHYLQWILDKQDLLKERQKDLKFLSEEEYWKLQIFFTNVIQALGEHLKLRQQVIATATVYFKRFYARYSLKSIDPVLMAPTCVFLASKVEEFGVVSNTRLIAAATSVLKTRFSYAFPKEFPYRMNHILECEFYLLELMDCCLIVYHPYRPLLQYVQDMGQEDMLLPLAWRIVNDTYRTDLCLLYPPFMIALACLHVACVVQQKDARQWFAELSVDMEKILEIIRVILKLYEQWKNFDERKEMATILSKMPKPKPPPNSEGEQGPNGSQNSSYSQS
T3 sequence (Q00526 whole entry): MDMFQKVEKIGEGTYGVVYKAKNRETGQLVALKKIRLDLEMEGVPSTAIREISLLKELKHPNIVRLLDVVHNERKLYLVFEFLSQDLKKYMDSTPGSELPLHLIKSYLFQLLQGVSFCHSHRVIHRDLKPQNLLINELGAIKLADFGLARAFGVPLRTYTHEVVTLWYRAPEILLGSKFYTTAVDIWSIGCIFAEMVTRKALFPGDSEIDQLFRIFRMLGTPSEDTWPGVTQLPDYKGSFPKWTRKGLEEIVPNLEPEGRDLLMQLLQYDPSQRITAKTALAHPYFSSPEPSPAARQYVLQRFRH
T3 sequence (P24864 whole entry partner): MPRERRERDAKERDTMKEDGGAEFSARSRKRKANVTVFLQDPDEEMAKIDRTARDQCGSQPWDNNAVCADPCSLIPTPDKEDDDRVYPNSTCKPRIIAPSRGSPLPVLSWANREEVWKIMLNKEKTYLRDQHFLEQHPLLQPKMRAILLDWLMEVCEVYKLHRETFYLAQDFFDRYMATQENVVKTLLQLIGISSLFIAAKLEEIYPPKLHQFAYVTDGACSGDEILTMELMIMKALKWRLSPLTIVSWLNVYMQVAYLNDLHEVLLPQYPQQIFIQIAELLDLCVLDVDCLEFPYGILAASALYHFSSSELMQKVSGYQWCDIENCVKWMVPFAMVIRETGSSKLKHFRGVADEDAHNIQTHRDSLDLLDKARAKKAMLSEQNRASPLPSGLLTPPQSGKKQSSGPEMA
T2 sequence (P50750 whole entry): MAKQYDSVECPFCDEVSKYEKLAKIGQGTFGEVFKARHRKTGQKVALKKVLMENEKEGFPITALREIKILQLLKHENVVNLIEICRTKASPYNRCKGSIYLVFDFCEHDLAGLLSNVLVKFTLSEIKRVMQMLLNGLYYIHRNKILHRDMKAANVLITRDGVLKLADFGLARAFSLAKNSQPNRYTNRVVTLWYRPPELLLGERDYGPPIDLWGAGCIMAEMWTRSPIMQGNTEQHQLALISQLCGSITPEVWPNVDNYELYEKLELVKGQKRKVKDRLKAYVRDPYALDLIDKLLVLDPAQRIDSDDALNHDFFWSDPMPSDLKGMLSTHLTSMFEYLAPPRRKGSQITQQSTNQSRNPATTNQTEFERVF
T2 sequence (O60563 whole entry partner): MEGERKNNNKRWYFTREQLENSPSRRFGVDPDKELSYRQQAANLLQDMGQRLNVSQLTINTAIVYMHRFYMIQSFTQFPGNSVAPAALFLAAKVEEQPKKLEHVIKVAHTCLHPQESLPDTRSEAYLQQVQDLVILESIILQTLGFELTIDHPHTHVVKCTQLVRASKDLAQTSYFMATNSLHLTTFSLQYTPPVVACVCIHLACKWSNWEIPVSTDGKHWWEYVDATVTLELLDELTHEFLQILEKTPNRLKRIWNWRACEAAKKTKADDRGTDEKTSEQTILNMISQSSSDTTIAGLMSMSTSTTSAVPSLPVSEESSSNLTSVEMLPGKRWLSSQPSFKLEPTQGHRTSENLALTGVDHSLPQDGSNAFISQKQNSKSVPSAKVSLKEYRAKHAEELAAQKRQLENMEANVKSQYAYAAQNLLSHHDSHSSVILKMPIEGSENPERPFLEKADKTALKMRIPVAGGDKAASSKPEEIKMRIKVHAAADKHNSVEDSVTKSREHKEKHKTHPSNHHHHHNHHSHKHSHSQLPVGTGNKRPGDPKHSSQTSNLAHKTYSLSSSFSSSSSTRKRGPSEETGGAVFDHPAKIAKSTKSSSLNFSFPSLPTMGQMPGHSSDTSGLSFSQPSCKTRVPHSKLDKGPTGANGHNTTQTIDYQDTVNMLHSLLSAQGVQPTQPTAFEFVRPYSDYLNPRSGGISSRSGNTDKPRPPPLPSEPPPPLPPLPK

Row | GI50 ([16]; Homo sapiens) [nM] | GI50 ([17]; Homo sapiens, MEC1) [nM] | GI50 (hamster lung cell CHL) [nM] | GI50 [18] [nM] | GI50 ([19]; Homo sapiens) [nM] | GI50 ([20]; MEC2) [nM] | GI50 ([21]; Homo sapiens) [nM] | GI50 ([22]; Homo sapiens) [nM] | GI50 ([23]; Homo sapiens) [nM] | GI50 ([24]; Homo sapiens) [nM] | GI50 ([25]; Homo sapiens) [nM] | GI50 ([26]; Homo sapiens) [nM] | GI50 [27] [nM] | GI50 ([28]; Homo sapiens, OCI-AML-3) [nM] | SMILES | inhibitory effect on normal cell CHO (in words) (hamster ovary cell CHO) | GI50 (hamster ovary cell CHO) [nM] | inhibitory effect on normal cell CHL (in words) (hamster lung cell CHL) | further results
1 |  |  |  |  |  |  |  |  |  |  |  |  |  |  | CC(=O)c1c(C)c2cnc(Nc3ccc(N4CCNCC4)cn3)nc2n(C2CCCC2)c1=O [Palbociclib, reference compound] |  |  |  | IC50 [1]: > 10000 nM; IC50 [2]: 2700 nM; IC50 [3]: 1200 nM; IC50 [4]: 5100 nM; IC50 [5]: 1600 nM; IC50 [6]: 3200 nM; IC50 [7]: 6600 nM; IC50 [8]: > 10000 nM; IC50 [9]: ~10000 nM; IC50 [10]: 4100 nM; IC50 [11]: 1700 nM; IC50 [12]: > 10000 nM; IC50 [13]: > 10000 nM; IC50 [14]: 3600 nM; IC50 [15]: > 10000 nM
2 | 12 | 37 | 1200 | 7.9 | 110 | 23 | 56 | 41 | 1.1 | 2 | 6.6 | 11 | 36 | 12 | COCCN[C@H]1CC[C@H](Nc2cc(-c3csc(NCC4(C#N)CCOCC4)n3)c(Cl)cn2)CC1 [Compound 14, 4-((4-(5-chloro-2-(((1r,4r)-4-((2-methoxyethyl)amino)cyclohexyl)amino)pyridin-4-yl)thiazol-2-ylamino)methyl)tetrahydro-2H-pyran-4-carbonitrile] | no inhibitory effect | 1100 | no inhibitory effect | IC50 (CDK11(non-active)): > 10000 nM; IC50 (CDK9/cyclin T1): 1.27 nM; IC50 (CDK3/cyclin E1): > 10000 nM; IC50 (CDK8/cyclin C): > 10000 nM
3 | 820 | 850 | 8000 | 490 | 600 | 660 | 410 | 1100 | 330 | 330 | 600 | 340 | 980 | 560 | COCCN[C@H]1CC[C@H](Nc2cc(-c3csc(NCC4CCCCC4)n3)c(Cl)cn2)CC1 [Compound 10, (1r,4r)-N^1-(5-chloro-4-(2-((cyclohexylmethyl)amino)thiazol-4-yl)pyridin-2-yl)-N^4-(2-methoxyethyl)cyclohexane-1,4-diamine] |  | 780 |  | 
4 |  |  | 200 | 32 |  |  |  |  |  |  |  |  | 42 |  | NC1CCC(Nc2cc(-c3cccc(NCc4cccc(F)c4)n3)c(Cl)cn2)CC1 (centres unmarked) [HY-16462, reference compound] | certain inhibitory effects | 290 | certain inhibitory effects | GI50 [16]: 32 nM; GI50 [17]: 48 nM; GI50 [19]: 63 nM; GI50 [20]: 36 nM; GI50 [21]: 37 nM; GI50 [22]: 27 nM; GI50 [23]: 33 nM; GI50 [24]: 40 nM; GI50 [25]: 71 nM; GI50 [26]: 31 nM; GI50 [28]: 47 nM
